Tests used:
[1] = molecular target: T1, human GPR139 receptor (Homo sapiens (Human), UniProt Q6DWJ6); test: GPR139 Competition Binding; conditions: stably transfected CHO-TRex membranes, 1 nM 3H radioligand; read-out: GPR139 Inhibition (Ki (nM));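 note: receptor expression induced with doxycycline before membrane preparation, bound radioactivity counted by scintillation, Ki fitted with a four-parameter logistic model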
[2] = molecular target: T1, human GPR139 receptor; test: Activation of Calcium Signaling of GPR139 In Vitro Assay; type: cell-based; conditions: stably transfected CHO-TRex cells, Calcium 5 dye, FLIPR Tetra;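 note: receptor expression induced with doxycycline, calcium fluorescence read continuously for one minute after compound addition, EC50 taken from a four-parameter logistic fit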

T1 sequence (Q6DWJ6 whole entry): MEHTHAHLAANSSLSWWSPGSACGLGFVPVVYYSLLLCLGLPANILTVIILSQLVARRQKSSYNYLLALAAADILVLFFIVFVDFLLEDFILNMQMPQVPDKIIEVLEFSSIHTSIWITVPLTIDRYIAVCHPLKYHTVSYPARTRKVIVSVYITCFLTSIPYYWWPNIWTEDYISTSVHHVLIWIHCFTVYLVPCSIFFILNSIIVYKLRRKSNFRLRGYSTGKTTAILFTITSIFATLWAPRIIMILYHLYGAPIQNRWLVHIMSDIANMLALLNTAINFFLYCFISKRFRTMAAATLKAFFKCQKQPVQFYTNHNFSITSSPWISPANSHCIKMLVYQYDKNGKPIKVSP

Row | Compound | Ki [1] [nM] | EC50 [2] [nM]
1 | COc1cccc2c(=O)n(CC(=O)N[C@@H](C)c3ccc(OC(F)(F)F)cc3)nnc12 [Example 62, (S)-2-(8-methoxy-4-oxobenzo[d][1,2,3]triazin-3(4H)-yl)-N-(1-(4-(trifluoromethoxy)phenyl)ethyl)acetamide] | 240 | 25
2 | Cc1ccc([C@H](C)NC(=O)Cn2nnc3c(C)cccc3c2=O)cc1 [Example 24, (S)-2-(8-methyl-4-oxobenzo[d][1,2,3]triazin-3(4H)-yl)-N-(1-p-tolylethyl)acetamide] | 72 | 9
3 | COc1cccc2nnn(CC(=O)N[C@@H](C)c3ccc(C(F)(F)F)cc3)c(=O)c12 [Example 61, (S)-2-(5-methoxy-4-oxobenzo[d][1,2,3]triazin-3 (4H)-yl)-N-(1-(4-(trifluoromethyl)phenyl)ethyl)acetamide] | 26 | 15
4 | CC[C@H](NC(=O)Cn1nnc2ccccc2c1=O)c1ccc(C(F)(F)F)cc1 [Example 87, (S)-2-(4-oxobenzo[d][1,2,3]triazin-3 (4H)-yl)-N-(1-(4-(trifluoromethyl)phenyl)propyl)acetamide] | 214 | 31
5 | COc1ccc([C@H](C)NC(=O)Cn2nnc3cccc(OC)c3c2=O)cc1 [Example 38, (S)-2-(5-methoxy-4-oxobenzo[d][1,2,3]triazin-3 (4H)-yl)-N-(1-(4-methoxyphenyl)ethyl)acetamide] | 619 | 26
6 | COc1cc(C)ccc1[C@H](C)NC(=O)[C@H](C)n1nnc2ccccc2c1=O [Example 50, (S)—N—((S)-1-(2-methoxy-4-methylphenyl)ethyl)-2-(4-oxobenzo[d][1,2,3]triazin-3(4H)-yl)propanamide] | – | 52
7 | COc1cc(C)ccc1[C@H](C)NC(=O)[C@@H](C)n1nnc2ccccc2c1=O [Example 51, (R)—N—((S)-1-(2-methoxy-4-methylphenyl)ethyl)-2-(4-oxobenzo[d][1,2,3]triazin-3(4H)-yl)propanamide] | – | 16
8 | COc1ccc(CCN(C)C(=O)Cn2nnc3ccccc3c2=O)cc1 [Example 78, N-(4-methoxyphenethyl)-N-methyl-2-(4-oxobenzo[d][1,2,3]triazin-3(4H)-yl)acetamide] | – | 80
9 | COc1ccc([C@H](C)NC(=O)Cn2nnc3c(OC)cccc3c2=O)cc1 [Example 31, (S)-2-(8-methoxy-4-oxobenzo[d][1,2,3]triazin-3 (4H)-yl)-N-(1-(4-methoxyphenyl)ethyl)acetamide] | – | 39
10 | COc1ccc([C@H](C)NC(=O)Cn2nnc3ccc(C)cc3c2=O)cc1 [Example 29, (S)—N-(1-(4-methoxyphenyl)ethyl)-2-(6-methyl-4-oxobenzo[d][1,2,3]triazin-3(4H)-yl)acetamide] | – | 19

Further lines, results first:

Row | Ki [1] [nM] | EC50 [2] [nM] | Compound
11 | 110 | 7 | Cc1ccc([C@H](C)NC(=O)Cn2nnc3c(Cl)cccc3c2=O)cc1 [Example 22, (S)-2-(8-chloro-4-oxobenzo[d][1,2,3]triazin-3(4H)-yl)-N-(1-p-tolylethyl)acetamide]
12 | 173 | 17 | Cc1ccc([C@H](C)NC(=O)Cn2nnc3cc(Cl)ccc3c2=O)cc1 [Example 21, (S)-2-(7-chloro-4-oxobenzo[d][1,2,3]triazin-3(4H)-yl)-N-(1-p-tolylethyl)acetamide]
13 | – | 1510 | C[C@H](NC(=O)Cn1nnc2ccccc2c1=O)c1ccc(F)cc1Br [Example 48, (S)—N-(1-(2-bromo-4-fluorophenyl)ethyl)-2-(4-oxobenzo[d][1,2,3]triazin-3(4H)-yl)acetamide]
14 | – | 49 | C[C@H](NC(=O)Cn1nnc2ccc(F)cc2c1=O)c1ccc(OC(F)(F)F)cc1F [Example 71, (S)—N-(1-(2-fluoro-4-(trifluoromethoxy)phenyl)ethyl)-2-(6-fluoro-4-oxobenzo[d][1,2,3]triazin-3(4H)-yl)acetamide]
15 | – | 14 | C[C@H](NC(=O)Cn1nnc2ccccc2c1=O)c1ccc(F)cc1Cl [Example 47, (S)—N-(1-(2-chloro-4-fluorophenyl)ethyl)-2-(4-oxobenzo[d][1,2,3]triazin-3(4H)-yl)acetamide]

Reference: patent publication US9556130B2, “4-oxo-3,4-dihydro-1,2,3-benzotriazine modulators of GPR139” (Takeda Pharmaceutical Company Limited, priority 2014, dated 2017)
